Format in all cases: cell-based
The test system of assay [1] is alpha-smooth muscle actin (α-SMA). Kind of assay: Inhibition of TGF-β induced expression of alpha-smooth muscle actin in CFSC cells (western blot). To be noted: compound at 10 μM, TGF-β (10 ng/mL), 24 hours. The essentials:
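Rat CCl4-treated hepatic stellate (CFSC) cells in serum-free DMEM were given compound at 10 μM plus TGF-β 10 ng/mL for 24 h at 37 °C. α-SMA measured by western blot with β-actin, bands quantified densitometrically. Percent inhibition is the decrease in band intensity versus TGF-β alone.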

The next assay deals with HeLa (cervical cancer). Kind of assay: Antiproliferative activity, CCK-8 cell viability. The following applies: Homo sapiens, 72 h, read-out: Inhibition of Cancerous Cells, HELA; for inhibition at 3.3 µM: compound concentration of 3.3 μM; for inhibition at 10 µM: compound concentration of 10 μM; for inhibition at 30 µM: compound concentration of 30 μM.
In assay [2] the test system is MDA-MB-231 (breast cancer). The assay can be described thus: Antiproliferative activity, CCK-8 cell viability. To be noted: Homo sapiens, 72 h, read-out: Inhibition of Cancerous Cells, MDA-MB-231; for inhibition at 3.3 µM: compound concentration of 3.3 μM; for inhibition at 10 µM: compound concentration of 10 μM; for inhibition at 30 µM: compound concentration of 30 μM. The essentials:
(§1)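 Cells in DMEM with 10% FBS were treated with compound at 3.3, 10 or 30 μM for 72 h at 37°C. Viability was read by CCK-8 absorbance at 450 nm and expressed relative to DMSO-treated cells. Growth inhibition was binned as ≥50%, 30–50% or <30%.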

Assay [3] deals with A549 (lung adenocarcinoma). The assay can be described thus: Antiproliferative activity, CCK-8 cell viability. The following applies: Homo sapiens, 72 h, read-out: Inhibition of Cancerous Cells, A549; for inhibition at 3.3 µM: compound concentration of 3.3 μM; for inhibition at 10 µM: compound concentration of 10 μM; for inhibition at 30 µM: compound concentration of 30 μM.
The subject of a further assay is HepG2 (liver cancer). Kind of assay: Antiproliferative activity, CCK-8 cell viability. To be noted: Homo sapiens, 72 h, read-out: Inhibition of Cancerous Cells, HepG2; for inhibition at 3.3 µM: compound concentration of 3.3 μM; for inhibition at 10 µM: compound concentration of 10 μM; for inhibition at 30 µM: compound concentration of 30 μM. The essentials: as §1
Assay [4] deals with B16F10 (malignant melanoma). The assay can be described thus: Antiproliferative activity, CCK-8 cell viability. To be noted: Mus musculus, B16-F10, 72 h, read-out: Inhibition of Cancerous Cells, B16F10; for inhibition at 3.3 µM: compound concentration of 3.3 μM; for inhibition at 10 µM: compound concentration of 10 μM; for inhibition at 30 µM: compound concentration of 30 μM. The gist of the method: as §1

In assay [5] the test system is A431 (epidermoid carcinoma). The assay can be described thus: Antiproliferative activity, CCK-8 cell viability. The following applies: Homo sapiens, A-431, 72 h, read-out: Inhibition of Cancerous Cells, A431; for inhibition at 3.3 µM: compound concentration of 3.3 μM; for inhibition at 10 µM: compound concentration of 10 μM; for inhibition at 30 µM: compound concentration of 30 μM. The gist of the method: as §1

The subject of another assay is SW480 (colon cancer). Kind of assay: Antiproliferative activity, CCK-8 cell viability. To be noted: Homo sapiens, 72 h, read-out: Inhibition of Cancerous Cells, SW480; for inhibition at 3.3 µM: compound concentration of 3.3 μM; for inhibition at 10 µM: compound concentration of 10 μM; for inhibition at 30 µM: compound concentration of 30 μM. The gist of the method:
as §1

What is called inhibition is the drop in the measured response relative to a control, in per cent. For the compound `COc1ccc2c(c1)/C(=C\c1ccc(COc3ccccc3)cc1)C(C)=C2CC(=O)O` [Compound A12, (Z)-2-(6-Methoxy-2-methyl-1-(4-(phenoxymethyl)benzylidene)-1H-inden-3-yl)acetic acid], the inhibition at 10 µM was not below 80% in assay [1]; not below 50% in the assay with HeLa (cervical cancer); 30 to 50% in assay [2]; not below 50% in assay [3]; 30 to 50% in the assay with HepG2 (liver cancer); not below 50% in assay [4]. The inhibition at 10 µM was less than 30% in assay [5] and not below 50% with SW480 (colon cancer). Moreover, the inhibition at 3.3 µM in the assay on HeLa (cervical cancer) was 30 to 50%; in assay [2] it was less than 30%; in assay [3], 30 to 50%; in the assay on HepG2 (liver cancer) it was 30 to 50%; in assay [4] it was not below 50%; in assay [5], less than 30%. Also, the inhibition at 3.3 µM in the assay on SW480 (colon cancer) is not below 50%. For the same compound, the inhibition at 30 µM (in the assay on HeLa (cervical cancer); in assay [2]; in assay [3]; in the assay with HepG2 (liver cancer); in assay [4]; in assay [5]) was not below 50% in each case. Further, the inhibition at 30 µM in the assay on SW480 (colon cancer) was not below 50%.
Take `COc1ccc2c(c1)/C(=C\c1ccc(CN(C)c3ccccc3)cc1)C(C)=C2CC(=O)O` [Compound A13, 2-[(1Z)-6-Methoxy-2-methyl-1-[(4-{[methyl(phenyl)amino]methyl}phenyl)-methylidene]-1H-inden-3-yl]acetic acid]: the inhibition at 10 µM in assay [1] is not below 80%; in the assay with HeLa (cervical cancer), 30 to 50%; in assay [2], 30 to 50%; in assay [3] it was 30 to 50%; with HepG2 (liver cancer), not below 50%; in assay [4] it was 30 to 50%. The inhibition at 10 µM in assay [5] was not below 50%; with SW480 (colon cancer) it was 30 to 50%. In addition, the inhibition at 3.3 µM with HeLa (cervical cancer) is less than 30%; in assay [2], less than 30%; in assay [3], 30 to 50%; with HepG2 (liver cancer) it was not below 50%; in assay [4] it was less than 30%; in assay [5] it was not below 50%. Besides, in the assay on SW480 (colon cancer), the inhibition at 3.3 µM is not below 50%. Also, the inhibition at 30 µM (in the assay on HeLa (cervical cancer); in assay [2]; in assay [3]; in the assay with HepG2 (liver cancer); in assay [4]; in assay [5]) was not below 50% in each case. In the assay with SW480 (colon cancer), the inhibition at 30 µM is not below 50%.
`CC1=C(CC(=O)O)c2cc(F)ccc2/C1=C\c1ccc(COc2ccc(F)cc2F)cc1` [Compound A15, 2-[(1Z)-1-({4-[(2,4-Difluorophenoxy)methyl]phenyl}methylidene)-5-fluoro-2-methyl-1H-inden-3-yl]acetic acid]: the inhibition at 10 µM in assay [1] is not below 80%; in the assay with HeLa (cervical cancer) it was not below 50%; in assay [2], not below 50%; in assay [3], not below 50%; in the assay with HepG2 (liver cancer) it was not below 50%; in assay [4], not below 50%. Also, the inhibition at 10 µM in assay [5] was less than 30%; in the assay on SW480 (colon cancer), not below 50%. Also, the inhibition at 3.3 µM in the assay with HeLa (cervical cancer) was 30 to 50%; in assay [2] it was not below 50%; in assay [3] it was 30 to 50%; in the assay with HepG2 (liver cancer), not below 50%; in assay [4] it was not below 50%; in assay [5], less than 30%. For the same compound, the inhibition at 3.3 µM in the assay on SW480 (colon cancer) was not below 50%. Further, the inhibition at 30 µM (with HeLa (cervical cancer); in assay [2]; in assay [3]; in the assay with HepG2 (liver cancer); in assay [4]; in assay [5]) was not below 50% throughout. Also, the inhibition at 30 µM with SW480 (colon cancer) was not below 50%.
In the case of `CC1=C(CC(=O)O)c2cc(F)ccc2/C1=C\c1cccc(CN(C)c2ccccc2)c1` [Compound A16, 2-[(1Z)-5-Fluoro-2-methyl-1-[(3-{[methyl(phenyl)amino]methyl}phenyl)-methylidene]-1H-inden-3-yl]acetic acid], the inhibition at 10 µM is not below 80% in assay [1]; not below 50% in the assay on HeLa (cervical cancer); not below 50% in assay [2]; not below 50% in assay [3]; 30 to 50% with HepG2 (liver cancer); less than 30% in assay [4]. In addition, the inhibition at 10 µM (in assay [5]; in the assay with SW480 (colon cancer)) was not below 50% in each case. The inhibition at 3.3 µM with HeLa (cervical cancer) is 30 to 50%; in assay [2], 30 to 50%; in assay [3], 30 to 50%; in the assay with HepG2 (liver cancer), less than 30%; in assay [4], less than 30%; in assay [5], less than 30%. The inhibition at 3.3 µM in the assay on SW480 (colon cancer) was not below 50%. Also, the inhibition at 30 µM (in the assay on HeLa (cervical cancer); in assay [2]; in assay [3]; in the assay with HepG2 (liver cancer); in assay [4]; in assay [5]) was not below 50% throughout. For the same compound, the inhibition at 30 µM with SW480 (colon cancer) is not below 50%.
In the case of `CC1=C(CC(=O)O)c2cc(F)ccc2/C1=C\c1cccc(CCc2ccccc2)c1` [Compound A17, 2-[(1Z)-5-Fluoro-2-methyl-1-{[3-(2-phenylethyl)phenyl]methylidene}-1H-inden-3-yl]acetic acid], the inhibition at 10 µM was less than 30% in assay [1]; not below 50% with HeLa (cervical cancer); not below 50% in assay [2]; not below 50% in assay [3]; not below 50% in the assay on HepG2 (liver cancer); not below 50% in assay [4]. Further, the inhibition at 10 µM (in assay [5]; with SW480 (colon cancer)) was not below 50% in each case. The inhibition at 3.3 µM is 30 to 50% with HeLa (cervical cancer); not below 50% in assay [2]; not below 50% in assay [3]; not below 50% in the assay with HepG2 (liver cancer); 30 to 50% in assay [4]; less than 30% in assay [5]. In addition, in the assay on SW480 (colon cancer), the inhibition at 3.3 µM is not below 50%. In addition, the inhibition at 30 µM (in the assay with HeLa (cervical cancer); in assay [2]; in assay [3]; in the assay with HepG2 (liver cancer); in assay [4]; in assay [5]) was not below 50% each time. Besides, the inhibition at 30 µM in the assay with SW480 (colon cancer) was not below 50%.
For `CC1=C(CC(=O)O)c2cc(F)ccc2/C1=C\c1cccc(COc2ccc(F)cc2F)c1` [Compound A19, 2-[(1Z)-1-({3-[(2,4-Difluorophenoxy)methyl]phenyl}methylidene)-5-fluoro-2-methyl-1H-inden-3-yl]acetic acid], the inhibition at 10 µM in assay [1] was not below 80%; in the assay with HeLa (cervical cancer) it was not below 50%; in assay [2] it was not below 50%; in assay [3], 30 to 50%; in the assay on HepG2 (liver cancer), not below 50%; in assay [4], not below 50%. For the same compound, the inhibition at 10 µM (in assay [5]; in the assay on SW480 (colon cancer)) was not below 50% throughout. For the same compound, the inhibition at 3.3 µM is 30 to 50% with HeLa (cervical cancer); not below 50% in assay [2]; less than 30% in assay [3]; 30 to 50% with HepG2 (liver cancer); not below 50% in assay [4]; not below 50% in assay [5]. Besides, the inhibition at 3.3 µM in the assay on SW480 (colon cancer) was not below 50%. Besides, the inhibition at 30 µM (in the assay with HeLa (cervical cancer); in assay [2]; in assay [3]; in the assay with HepG2 (liver cancer); in assay [4]; in assay [5]) was not below 50% throughout. Also, the inhibition at 30 µM in the assay with SW480 (colon cancer) was not below 50%.

Source of the values: patent publication US20240116845A1, “INDENE COMPOUNDS, PHARMACEUTICAL COMPOSITIONS THEREOF, AND THEIR THERAPEUTIC APPLICATIONS” (NucMito Pharmaceuticals Co., Ltd., priority 2021, published 2024).
